Assay [1] deals with DEPDC5 knockout OPM2 cells. Kind of assay: Cell viability (CellTiter-Lumi) of DEPDC5 knockout OPM2 under immunomodulatory drugs. Conditions: DEPDC5-KO OPM2; drug gradients starting from 1 μM; 5 days. The class given is cell-based, human. The method, then:
(§1) • (1) OPM2 cells in the logarithmic growth phase were seeded in a 96-well plate at 3000 cells/well. The volume of the cell suspension is 90 μl/well. • (2) Each well was added with 10 μl lenalidomide (Len), pomalidomide (Pom), CC-122, or CC-220 down the concentration gradients starting from 1 μM. Control groups with no drug treatment were set. Each drug had 7 gradients with 3 replicates. • (3) The plate was placed in a humidity-controlled environment (37° C., 5% CO2) for 5 days. • (4) Subsequently, 50 μl of CTL solution was added to each well under dark conditions. Then, the plate was placed on a shaker and shaken for 10 minutes, followed by reading on a microplate reader. • (5) The average absorbance values of the 3 replicates were used to plot the cell viability curves of OPM2 under drug treatment.
(§2) Cell viability was measured using the CellTiter-Lumi luminescent cell viability assay kit (Beyotime), with luminescence intensity reflecting cell viability, through an ATP-catalyzed luciferase reaction in the cell culture medium.

Another assay concerns the target T1, RBM39 (Homo sapiens, UniProt Q14498).
T1 construct: endogenous in cells; host or cells: OPM2 myeloma cell line
T1 sequence (Q14498 1-530): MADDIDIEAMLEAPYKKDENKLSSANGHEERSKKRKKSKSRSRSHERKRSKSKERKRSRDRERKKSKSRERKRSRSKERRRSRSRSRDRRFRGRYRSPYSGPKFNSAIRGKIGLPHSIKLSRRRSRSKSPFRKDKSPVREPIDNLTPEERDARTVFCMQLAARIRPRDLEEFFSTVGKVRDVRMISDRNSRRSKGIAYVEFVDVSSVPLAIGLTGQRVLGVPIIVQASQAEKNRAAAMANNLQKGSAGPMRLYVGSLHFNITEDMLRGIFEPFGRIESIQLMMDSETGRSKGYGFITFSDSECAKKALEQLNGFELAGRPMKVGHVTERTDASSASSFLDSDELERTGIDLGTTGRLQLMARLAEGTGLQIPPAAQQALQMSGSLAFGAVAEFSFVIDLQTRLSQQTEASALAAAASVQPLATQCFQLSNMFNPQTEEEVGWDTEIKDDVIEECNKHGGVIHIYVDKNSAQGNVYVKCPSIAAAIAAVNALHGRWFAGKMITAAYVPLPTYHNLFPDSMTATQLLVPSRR
Nature of the assay: Western blot of RBM39 protein level in OPM2. Type of assay: cell-based. Conditions: indisulam 1 μM + rapamycin 20 nM, 24 hours. As for the experimental part:
(§3) The protein levels were analyzed using Western blot.
Different concentrations of indisulam (0, 0.1, 1 μm) and a fixed concentration of rapamycin (20 nM) were added to the myeloma cell line OPM2. After 24 hours, protein levels were analyzed using the same method as in Embodiment 3.
In general terms: Immunoblotting shows a protein as a band on a membrane.

The subject of the next assay is U266. Kind of assay: Cell viability, pomalidomide combined with rapamycin, U266. Type of assay: cell-based, human. Conditions: U266 (pomalidomide-resistant); viability at 0, 48, 96, 120 h; P<0.001. The method, then:
(§4) • (1) OPM2 cells in the logarithmic growth phase were seeded in a 96-well plate at 3000 cells/well. The volume of the cell suspension is 90 μl/well. • (2) Each well was added with 10 μl lenalidomide (Len), pomalidomide (Pom), CC-122, or CC-220 down the concentration gradients starting from 1 μM. Control groups with no drug treatment were set. […] Then, the plate was placed on a shaker and shaken for 10 minutes, followed by reading on a microplate reader. • (5) The average absorbance values of the 3 replicates were used to plot the cell viability curves of OPM2 under drug treatment.
as §2
(§5) In this embodiment, the pomalidomide-sensitive myeloma cell lines (MM1S, H929 and OPM2) and the pomalidomide-resistant myeloma cell lines (U266 and RPMI-8226) were treated with mTOR signaling pathway inhibitor rapamycin alone, pomalidomide alone, a combination of rapamycin and pomalidomide, and control, respectively. Cell viability was assessed on Oh, 48 h, 96 h and 120 h post drug treatment. The detection used on each day is the same and has been described in Embodiment 1.

The next assay deals with H929. Kind of assay: Cell viability, pomalidomide combined with rapamycin, H929. Conditions: H929 (pomalidomide-sensitive); viability at 0, 48, 96, 120 h; P<0.001. Type of assay: cell-based, human. The method, then:
as §4, §2, §5

The target in another assay is IKZF1 (Homo sapiens, UniProt Q13422+Q96SW2). As for the experimental part: 25 nM of pomalidomide and varying concentrations of rapamycin were added to myeloma cell lines OPM2, RPMI-8226, and U266, respectively. Cell pellets were collected after 24 h and were lysed using RIPA. The protein levels were analyzed using Western blot.
Chain of IKZF1 (Q16531 whole entry): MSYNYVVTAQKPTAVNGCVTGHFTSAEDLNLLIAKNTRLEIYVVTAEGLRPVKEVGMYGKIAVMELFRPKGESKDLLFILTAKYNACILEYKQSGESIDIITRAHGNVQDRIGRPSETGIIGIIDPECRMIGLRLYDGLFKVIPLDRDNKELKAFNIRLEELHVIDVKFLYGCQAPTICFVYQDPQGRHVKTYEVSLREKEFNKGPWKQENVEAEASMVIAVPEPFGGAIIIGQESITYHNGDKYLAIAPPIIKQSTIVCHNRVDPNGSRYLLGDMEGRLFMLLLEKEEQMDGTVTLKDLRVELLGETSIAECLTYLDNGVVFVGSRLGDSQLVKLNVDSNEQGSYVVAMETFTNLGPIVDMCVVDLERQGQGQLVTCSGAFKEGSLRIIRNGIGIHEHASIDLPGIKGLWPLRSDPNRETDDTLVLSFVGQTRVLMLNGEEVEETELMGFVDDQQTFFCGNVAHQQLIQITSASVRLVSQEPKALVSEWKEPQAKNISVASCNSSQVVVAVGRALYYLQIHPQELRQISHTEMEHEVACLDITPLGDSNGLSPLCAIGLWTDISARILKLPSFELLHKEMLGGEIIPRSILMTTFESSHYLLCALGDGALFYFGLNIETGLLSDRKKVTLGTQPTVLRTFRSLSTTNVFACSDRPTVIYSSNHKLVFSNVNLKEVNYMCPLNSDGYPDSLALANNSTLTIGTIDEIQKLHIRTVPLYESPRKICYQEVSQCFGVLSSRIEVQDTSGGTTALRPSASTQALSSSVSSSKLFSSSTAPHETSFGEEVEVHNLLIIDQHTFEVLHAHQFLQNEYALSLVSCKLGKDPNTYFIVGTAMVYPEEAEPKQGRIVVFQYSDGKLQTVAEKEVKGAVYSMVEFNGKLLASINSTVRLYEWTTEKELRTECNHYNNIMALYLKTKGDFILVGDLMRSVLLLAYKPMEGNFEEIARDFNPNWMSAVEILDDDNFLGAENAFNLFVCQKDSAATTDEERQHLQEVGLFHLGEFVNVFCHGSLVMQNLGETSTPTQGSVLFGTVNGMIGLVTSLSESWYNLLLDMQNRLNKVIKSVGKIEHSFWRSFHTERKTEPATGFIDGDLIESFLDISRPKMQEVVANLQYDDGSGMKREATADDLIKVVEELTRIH
Chain of IKZF1 (Q96SW2 whole entry): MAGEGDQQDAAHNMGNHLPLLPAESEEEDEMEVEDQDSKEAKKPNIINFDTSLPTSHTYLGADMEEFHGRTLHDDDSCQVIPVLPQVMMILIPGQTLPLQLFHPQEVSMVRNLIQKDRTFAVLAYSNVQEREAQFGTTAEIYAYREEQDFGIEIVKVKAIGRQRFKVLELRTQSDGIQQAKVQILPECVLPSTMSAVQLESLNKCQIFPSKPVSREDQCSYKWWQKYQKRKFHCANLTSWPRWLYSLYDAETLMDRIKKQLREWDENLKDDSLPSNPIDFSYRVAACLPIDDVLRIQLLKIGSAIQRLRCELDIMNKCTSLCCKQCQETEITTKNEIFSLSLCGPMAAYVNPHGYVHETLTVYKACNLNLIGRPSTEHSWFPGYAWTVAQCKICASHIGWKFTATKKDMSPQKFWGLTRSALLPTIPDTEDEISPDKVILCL
Chain of IKZF1 (Q13422 whole entry): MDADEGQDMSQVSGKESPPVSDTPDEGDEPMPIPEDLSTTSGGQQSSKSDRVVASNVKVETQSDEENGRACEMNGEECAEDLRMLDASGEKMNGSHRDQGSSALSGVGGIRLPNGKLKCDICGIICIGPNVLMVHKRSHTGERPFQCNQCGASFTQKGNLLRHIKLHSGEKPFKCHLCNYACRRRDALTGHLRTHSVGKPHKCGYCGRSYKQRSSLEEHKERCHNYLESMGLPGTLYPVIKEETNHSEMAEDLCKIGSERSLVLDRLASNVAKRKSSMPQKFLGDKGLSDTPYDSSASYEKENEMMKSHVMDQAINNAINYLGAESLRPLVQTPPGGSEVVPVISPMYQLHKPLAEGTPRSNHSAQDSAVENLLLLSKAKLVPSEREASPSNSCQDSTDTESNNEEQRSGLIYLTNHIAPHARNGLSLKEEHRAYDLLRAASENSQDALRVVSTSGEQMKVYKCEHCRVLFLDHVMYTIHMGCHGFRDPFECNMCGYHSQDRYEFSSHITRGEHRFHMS
Different concentrations of ZNL-02-096 (0, 1, 10, 10^2, 10^3 nM) and a fixed concentration of pomalidomide (25 nM) were added to the myeloma cell line OPM2. After 24 hours, protein levels were detected using the same method as in Embodiment 3.

A further assay has as its system OPM2. Nature of the assay: Cell viability, pomalidomide combined with rapamycin, OPM2. Conditions: OPM2 (pomalidomide-sensitive); viability at 0, 48, 96, 120 h; P<0.001. Type of assay: cell-based, human. As for the experimental part:
as §4, §2, §5

In assay [2] the target is T2, IKZF3 (Homo sapiens, UniProt Q96SW2+Q9UKT9).
T2 construct: Cell pellets were collected after 24 h and were lysed using RIPA; The protein levels were analyzed using Western blot; endogenous in cells; host or cells: OPM2, RPMI-8226, U266 myeloma cell lines
T2 sequence (Q9UKT9 whole entry): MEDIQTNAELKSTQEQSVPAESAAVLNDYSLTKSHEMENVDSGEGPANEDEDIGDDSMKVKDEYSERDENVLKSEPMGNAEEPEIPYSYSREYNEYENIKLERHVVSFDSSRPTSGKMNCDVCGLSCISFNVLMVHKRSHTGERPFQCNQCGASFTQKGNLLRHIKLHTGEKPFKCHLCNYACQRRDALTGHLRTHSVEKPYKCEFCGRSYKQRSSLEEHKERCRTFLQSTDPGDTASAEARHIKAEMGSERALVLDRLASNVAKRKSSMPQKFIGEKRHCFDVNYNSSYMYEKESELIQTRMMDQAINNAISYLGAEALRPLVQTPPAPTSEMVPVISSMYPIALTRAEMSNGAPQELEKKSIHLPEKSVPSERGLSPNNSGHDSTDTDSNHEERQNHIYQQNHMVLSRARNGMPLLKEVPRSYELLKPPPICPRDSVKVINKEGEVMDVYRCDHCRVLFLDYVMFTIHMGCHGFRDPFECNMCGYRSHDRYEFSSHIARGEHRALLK
T2 sequence (Q96SW2 whole entry): as the sequence (Q96SW2 whole entry) above
T2 sequence (Q16531 whole entry partner): as the sequence (Q16531 whole entry) above
Nature of the assay: Western blot of IKZF3 in pomalidomide-resistant OPM2-P5000 and OPM2 cells. The class given is cell-based. Conditions: pomalidomide-resistant myeloma cell line (OPM2-P5000; FIG. 7b OPM2); rapamycin 20 nM. As for the experimental part: as §3
In this embodiment, the myeloma cell line OPM2, which is sensitive to pomalidomide was subjected to long-term high-dose pomalidomide treatment to obtain the pomalidomide-resistant cell line OPM2-P5000. Pomalidomide and CC-92480 (0.5 nM, 25 nM) were administered to OPM2 cells, and pomalidomide and CC-92480 (0.5 nM, 3 μM) were administered to OPM2-P5000 cells. These treatments were combined with a fixed concentration of rapamycin (20 nM).

A further assay concerns MM1S. Kind of assay: Cell viability, pomalidomide combined with rapamycin, MM1S. Type of assay: cell-based, human. Conditions: MM1S (pomalidomide-sensitive); viability at 0, 48, 96, 120 h; P<0.001. As for the experimental part: as §4, §2, §5
Another assay deals with RPMI-8226. Kind of assay: Cell viability, pomalidomide combined with rapamycin, RPMI-8226. Type of assay: cell-based, human. Conditions: RPMI-8226 (pomalidomide-resistant); viability at 0, 48, 96, 120 h; P<0.001. The method, then:
as §4, §2, §5

The target of assay [3] is T2, IKZF3. Kind of assay: Western blot of IKZF3 protein level in myeloma cell lines. The class given is cell-based.
The target in the next assay is T3, BRD4 (Homo sapiens, UniProt O60885).
T3 construct: endogenous in cells; host or cells: OPM2 myeloma cell line
Kind of assay: Western blot of BRD4 protein level in OPM2. Conditions: ARV-771 0.5 nM or 1 nM + rapamycin 20 nM, 24 hours. Type of assay: cell-based. As for the experimental part:
as §3
Different concentrations of ARV-771 (0, 0.5, 1 nM) and a fixed concentration of rapamycin (20 nM) were added to the myeloma cell line OPM2.

The test system of the next assay is OPM2-P5000. Nature of the assay: Cell viability of pomalidomide-resistant OPM2-P5000 cells. The class given is cell-based, human. Conditions: CC-92480 3 μM + rapamycin 20 nM, viability at 0, 96, 120 h. As for the experimental part:
as §1, §2
Meanwhile, this embodiment provides the following groups for cell viability test in the pomalidomide-resistant myeloma cell line OPM2-P5000: rapamycin alone (20 nM), pomalidomide alone (3 μM), CC-92480 alone (3 μM), combination treatment, and control. Cell viability was assessed on Oh, 96 h and 120 h post drug treatment using the same method as in Embodiment 1.

A further assay deals with T4, Wee1 (Homo sapiens, UniProt P30291).
T4 construct: endogenous in cells; host or cells: OPM2 myeloma cell line
T4 sequence (P30291 whole entry): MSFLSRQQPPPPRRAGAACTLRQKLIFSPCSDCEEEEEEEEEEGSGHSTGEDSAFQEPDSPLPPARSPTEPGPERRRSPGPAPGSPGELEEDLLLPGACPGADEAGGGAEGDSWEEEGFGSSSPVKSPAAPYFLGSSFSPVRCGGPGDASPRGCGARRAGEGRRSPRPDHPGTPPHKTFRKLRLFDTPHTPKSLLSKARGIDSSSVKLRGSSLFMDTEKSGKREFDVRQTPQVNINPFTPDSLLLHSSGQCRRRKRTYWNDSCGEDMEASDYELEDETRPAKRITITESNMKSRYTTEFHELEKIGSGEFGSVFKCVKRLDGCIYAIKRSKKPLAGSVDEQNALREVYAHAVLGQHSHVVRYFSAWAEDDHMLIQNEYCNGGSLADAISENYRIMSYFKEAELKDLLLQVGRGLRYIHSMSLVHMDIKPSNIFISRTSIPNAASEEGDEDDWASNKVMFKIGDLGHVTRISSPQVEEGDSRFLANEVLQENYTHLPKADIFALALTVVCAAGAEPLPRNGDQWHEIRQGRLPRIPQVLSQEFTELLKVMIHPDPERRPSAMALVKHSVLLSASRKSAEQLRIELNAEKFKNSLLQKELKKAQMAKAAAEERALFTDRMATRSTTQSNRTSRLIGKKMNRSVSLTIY
Kind of assay: Western blot of Wee1 protein level in OPM2. Type of assay: cell-based. Conditions: ZNL-02-096 10 nM + rapamycin 20 nM, 24 hours. The method, then: as §3
Different concentrations of ZNL-02-096 (0, 1, 10 nM) and a fixed concentration of rapamycin (20 nM) were added to the myeloma cell line OPM2.

The target in assay [4] is T5, GSPT1 (Homo sapiens, UniProt P15170+Q96SW2). Nature of the assay: Western blot of GSPT1 protein level in leukemia cell lines HL60 and MOLT-4. Conditions: degrader (10 nM CC90009) co-administered with varying concentrations of rapamycin; HL60, MOLT-4; 12 h. Type of assay: cell-based. As for the experimental part:
as §3
The samples were collected after 12 h, and the protein levels were examined by the same method as in Embodiment 3.

Assay [5] deals with T5, GSPT1. Nature of the assay: Western blot of GSPT1 protein level in pancreatic cancer cell line KP4. Details: endogenous in cells; host or cells: KP4 pancreatic cancer cell line. Conditions: 24 hours. The class given is cell-based.
The mark [6] stands for this setting: pomalidomide 25 nM + varying concentrations of everolimus, OPM2, 24 hours.

Each structure is given as a SMILES string.

T5 sequence (P15170 whole entry): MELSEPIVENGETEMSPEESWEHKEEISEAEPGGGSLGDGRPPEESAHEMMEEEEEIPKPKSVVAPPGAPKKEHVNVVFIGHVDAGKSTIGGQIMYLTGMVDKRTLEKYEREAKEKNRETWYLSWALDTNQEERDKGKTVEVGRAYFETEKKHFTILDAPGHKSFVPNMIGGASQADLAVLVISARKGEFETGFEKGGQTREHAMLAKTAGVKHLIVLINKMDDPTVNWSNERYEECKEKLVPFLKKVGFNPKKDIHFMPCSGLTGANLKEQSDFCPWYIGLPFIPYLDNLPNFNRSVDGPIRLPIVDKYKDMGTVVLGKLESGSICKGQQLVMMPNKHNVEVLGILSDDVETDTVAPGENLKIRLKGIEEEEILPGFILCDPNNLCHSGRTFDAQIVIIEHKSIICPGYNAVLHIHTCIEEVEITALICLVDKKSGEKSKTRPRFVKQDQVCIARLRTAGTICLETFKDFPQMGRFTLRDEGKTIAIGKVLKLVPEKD
T5 sequence (Q96SW2 whole entry): as the sequence (Q96SW2 whole entry) above
T5 sequence (Q16531 whole entry partner): as the sequence (Q16531 whole entry) above

With `O=C1CC[C@H](N2Cc3c(OCc4ccc(CN5CCOCC5)cc4)cccc3C2=O)C(=O)N1` [CC-220], in [1], the “cell viability (killing curve) of DEPDC5 knockout cells compared to the control group” value (shortened to “cell viability … compared to the control group”) was “exhibit resistance”.
Same read-out and setting: then `Nc1cccc2c1CN(C1CCC(=O)NC1=O)C2=O` (stereo not shown) [lenalidomide], with “exhibit resistance”.
As to `NS(=O)(=O)c1ccc(S(=O)(=O)Nc2cccc3c(Cl)c[nH]c23)cc1` [indisulam], the “degradation of the substrate RBM39, combination with rapamycin vs alone” value on RBM39 is “stronger degradation effect”.
In the case of `Nc1cccc2c1C(=O)N(C1CCC(=O)NC1=O)C2=O` (stereo not shown) [pomalidomide], the “killing of myeloma cells, combination with rapamycin vs pomalidomide alone” value in the assay with U266, in the assay with H929, with OPM2, in the assay with MM1S and in the assay on RPMI-8226 was “stronger effect in killing myeloma cells” in each case. Besides, the “degradation of IKZF1” value at IKZF1 (25 nM pomalidomide co-administered with rapamycin, OPM2, RPMI-8226, U266, 24 h) is on record as “enhances the degradation”. Besides, the “degradation of the substrate IKZF1, combination with everolimus” value on IKZF1 (setting [6]) is “stronger degradation effect”. The “cell viability … compared to the control group” value in assay [1] was “exhibit resistance”. Further, at IKZF3 [2], the “degradation of the substrate IKZF3, co-administration with rapamycin” value is given as “enhance the degradation”. Besides, at IKZF3 [3] (25 nM pomalidomide co-administered with varying concentrations of rapamycin, OPM2, RPMI-8226, U266, 24 h), the “level of the substrate IKZF3” value was “significantly reduced”. Further, at IKZF3 [3] (setting [6]), the “degradation of the substrate IKZF3, combination with everolimus” value is listed as “stronger degradation effect”.
For `Cc1ncsc1-c1ccc([C@H](C)NC(=O)[C@@H]2C[C@@H](O)CN2C(=O)[C@@H](NC(=O)COCCCOCCNC(=O)C[C@@H]2N=C(c3ccc(Cl)cc3)c3c(sc(C)c3C)-n3c(C)nnc32)C(C)(C)C)cc1` [ARV-771], the “degradation of the substrate BRD4, combination with rapamycin vs alone” value at BRD4 is recorded as “stronger degradation effect”.
As to `N#Cc1ccc(N2CCN(Cc3ccc(COc4cccc5c4CN([C@H]4CCC(=O)NC4=O)C5=O)cc3)CC2)c(F)c1` [CC-92480], the “degradation of the substrate IKZF3, co-administration with rapamycin” value on IKZF3 [2] was “enhance the degradation”. Further, the “killing effect on myeloma cells, co-administered with rapamycin” value in the assay with OPM2-P5000 was “stronger killing effect”.
As for `Cc1nc2cccc(N)c2c(=O)n1C1CCC(=O)NC1=O` (stereo not shown) [CC-122], the “cell viability … compared to the control group” value in [1] was “exhibit resistance”.
Regarding `C=CCn1c(=O)c2cnc(Nc3ccc(N4CCN(CCCNc5cccc6c5C(=O)N(C5CCC(=O)NC5=O)C6=O)CC4)cc3)nc2n1-c1cccc(C(C)(C)O)n1` (stereo not shown) [ZNL-02-096], at Wee1, the “degradation of the substrate Wee1, combination with rapamycin vs alone” value is given as “stronger degradation effect”.
Take `Cc1ccc(NC(=O)NCc2ccc3c(c2)CN(C2CCC(=O)NC2=O)C3=O)cc1Cl` (stereo not shown) [CC-885]: the “level of substrate protein GSPT1” value on GSPT1 [4] is given as “significantly reduced”. Moreover, at GSPT1 [5] (CC-90009 1 μM or CC-885 0.1 μM + everolimus 0.01, 0.1 μM), the “degradation of the substrate GSPT1, combination with everolimus” value is listed as “stronger degradation effect”. In addition, the “degradation of the substrate GSPT1, combination with rapamycin” value on GSPT1 [5] (CC-90009 1 μM or CC-885 0.1 μM + rapamycin 0.01, 0.1 μM) is on record as “stronger degradation effect”.

These data come from patent US20260166038A1, “METHOD OF ENHANCING THE EFFICACY OF A TARGETED PROTEIN DEGRADER AND ITS DERIVATIVE THERAPEUTICS” (ShanghaiTech University, priority 2022, published 2026).
